# Results: patent US20220187282A1, “CARDIOMYOCYTE PROLIFERATION” (The Council of the Queensland Institute of Medical Research, priority 2019, published 2022)
# Like-named read-outs stand apart in the source and are kept apart here.
# Experiments:
# Type in all cases: biochemical
# [1] = biological target: kinases (Homo sapiens, UniProt P36897); details: TGFBR1 (ALK5) FRET-Lantha SP; Test Conc(μM) 1
# [2] = biological target: kinases (Homo sapiens, UniProt P19784); details: CSNK2A2 (CK2alpha2) Z-Lyte SP; Test Conc(μM):ATP Conc(μM) 1:50
# [3] = biological target: kinases (Homo sapiens, UniProt Q9Y2K2); details: SIK3 FRET-Lantha SP; Test Conc(μM) 1
# [4] = biological target: kinases (Homo sapiens, UniProt Q96PY6); details: NEK1 FRET-Z-Lyte SP; ATP Conc(μM):Test Conc(μM) 1:100
# [5] = biological target: kinases (Homo sapiens, UniProt Q9P0L2); details: MARK1 (MARK) FRET-Z-Lyte SP; Test Conc(μM):ATP Conc(μM) 1:5
# [6] = biological target: kinases (Homo sapiens, UniProt P12931); details: SRC Hu Phos FRET-Z-Lyte SP; Test Conc(μM):ATP Conc(μM) 1:50
# kinases (Homo sapiens, UniProt P12931), sequence (P12931 whole entry): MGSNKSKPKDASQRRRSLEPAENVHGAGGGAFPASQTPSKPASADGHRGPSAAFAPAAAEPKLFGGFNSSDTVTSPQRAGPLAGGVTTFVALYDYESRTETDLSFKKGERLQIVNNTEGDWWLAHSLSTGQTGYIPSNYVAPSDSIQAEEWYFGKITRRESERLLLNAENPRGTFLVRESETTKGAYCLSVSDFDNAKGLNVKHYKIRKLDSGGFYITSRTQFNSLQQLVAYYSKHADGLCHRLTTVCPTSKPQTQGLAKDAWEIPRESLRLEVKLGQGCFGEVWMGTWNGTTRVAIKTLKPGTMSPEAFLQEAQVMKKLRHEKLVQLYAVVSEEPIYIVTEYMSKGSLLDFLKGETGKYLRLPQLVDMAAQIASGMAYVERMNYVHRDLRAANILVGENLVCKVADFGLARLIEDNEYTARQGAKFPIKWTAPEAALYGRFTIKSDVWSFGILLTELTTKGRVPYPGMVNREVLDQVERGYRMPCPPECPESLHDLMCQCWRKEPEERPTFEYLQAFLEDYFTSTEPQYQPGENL
# [7] = biological target: kinases (Homo sapiens, UniProt P49137); details: MAPKAPK2 FRET-Z-Lyte SP; Test Conc(μM):ATP Conc(μM) 1:5
# kinases (Homo sapiens, UniProt P49137), sequence (P49137 whole entry): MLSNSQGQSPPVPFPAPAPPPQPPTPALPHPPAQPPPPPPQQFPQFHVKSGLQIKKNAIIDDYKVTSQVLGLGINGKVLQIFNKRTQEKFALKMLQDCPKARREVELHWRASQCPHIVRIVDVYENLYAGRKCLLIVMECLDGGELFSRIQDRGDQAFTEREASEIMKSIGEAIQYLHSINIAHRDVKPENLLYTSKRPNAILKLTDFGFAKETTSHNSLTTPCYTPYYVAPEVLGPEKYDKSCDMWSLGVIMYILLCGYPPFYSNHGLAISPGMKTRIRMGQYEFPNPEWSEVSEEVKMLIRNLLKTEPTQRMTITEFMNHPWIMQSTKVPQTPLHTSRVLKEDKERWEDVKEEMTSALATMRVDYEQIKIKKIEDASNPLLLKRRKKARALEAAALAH
# [8] = biological target: kinases (Homo sapiens, UniProt O43353); details: RIPK2 FRET-Lantha SP; Test Conc(μM) 1
# [9] = biological target: kinases (Homo sapiens, UniProt P11802); details: Test Conc(μM):ATP Conc(μM) 1:10
# kinases (Homo sapiens, UniProt P11802), sequence (P11802 whole entry): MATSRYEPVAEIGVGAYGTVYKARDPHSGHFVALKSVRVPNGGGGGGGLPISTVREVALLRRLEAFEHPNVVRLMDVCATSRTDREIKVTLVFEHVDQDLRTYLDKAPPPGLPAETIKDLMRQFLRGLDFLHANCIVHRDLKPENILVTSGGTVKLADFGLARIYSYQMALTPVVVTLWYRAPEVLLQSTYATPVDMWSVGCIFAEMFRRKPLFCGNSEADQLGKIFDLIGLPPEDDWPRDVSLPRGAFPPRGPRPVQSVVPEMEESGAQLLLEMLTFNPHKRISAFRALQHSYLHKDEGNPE
# [10] = biological target: kinases (Homo sapiens, UniProt Q16816); details: PHKG1 FRET-Z-Lyte SP; Test Conc(μM):ATP Conc(μM) 1:75
# [11] = biological target: kinases (Homo sapiens, UniProt Q96SB4); details: SRPK1 FRET-Z-Lyte SP; Test Conc(μM):ATP Conc(μM) 1:25
# kinases (Homo sapiens, UniProt Q96SB4), sequence (Q96SB4 whole entry): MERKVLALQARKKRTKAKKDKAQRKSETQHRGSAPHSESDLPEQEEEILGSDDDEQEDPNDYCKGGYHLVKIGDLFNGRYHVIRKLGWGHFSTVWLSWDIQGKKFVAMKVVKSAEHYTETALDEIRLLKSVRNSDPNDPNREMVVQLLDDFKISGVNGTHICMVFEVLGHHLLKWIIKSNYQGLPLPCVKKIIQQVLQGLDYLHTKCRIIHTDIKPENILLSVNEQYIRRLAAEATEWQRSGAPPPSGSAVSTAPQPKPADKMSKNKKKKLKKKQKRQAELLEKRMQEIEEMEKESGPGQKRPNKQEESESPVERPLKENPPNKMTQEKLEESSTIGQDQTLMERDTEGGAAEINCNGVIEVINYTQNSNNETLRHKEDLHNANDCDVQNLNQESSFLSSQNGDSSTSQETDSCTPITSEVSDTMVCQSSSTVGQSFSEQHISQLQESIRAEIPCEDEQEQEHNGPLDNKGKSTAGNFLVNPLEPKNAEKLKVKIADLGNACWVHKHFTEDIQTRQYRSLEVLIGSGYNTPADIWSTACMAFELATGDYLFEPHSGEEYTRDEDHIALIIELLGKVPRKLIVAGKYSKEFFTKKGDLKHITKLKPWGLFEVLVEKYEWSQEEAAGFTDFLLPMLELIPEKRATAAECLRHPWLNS
# [12] = biological target: kinases (Homo sapiens, UniProt P21802); details: FGFR2 *Mn* FRET-Z-Lyte SP; Test Conc(μM):ATP Conc(μM) 1:5
# [13] = biological target: kinases (Homo sapiens, UniProt Q96NX5); details: CAMK1G FRET-Z-Lyte SP
# [14] = biological target: kinases (Homo sapiens, UniProt Q8NI60); details: ADCK3 FRET-Lantha SP; Test Conc(μM) 1
# [15] = biological target: kinases (Homo sapiens, UniProt P24941)
# [16] = biological target: kinases (Homo sapiens, UniProt Q9BUB5); details: MKNK1 (MNK1) *Mn* Z-Lyte SP; Test Conc(μM):ATP Conc(μM) 1:100
# [17] = biological target: kinases (Homo sapiens, UniProt Q9Y2U5); details: MAP3K2 (MEKK2) FRET-Lantha SP; Test Conc(μM) 1
# kinases (Homo sapiens, UniProt Q9Y2U5), sequence (Q9Y2U5 whole entry): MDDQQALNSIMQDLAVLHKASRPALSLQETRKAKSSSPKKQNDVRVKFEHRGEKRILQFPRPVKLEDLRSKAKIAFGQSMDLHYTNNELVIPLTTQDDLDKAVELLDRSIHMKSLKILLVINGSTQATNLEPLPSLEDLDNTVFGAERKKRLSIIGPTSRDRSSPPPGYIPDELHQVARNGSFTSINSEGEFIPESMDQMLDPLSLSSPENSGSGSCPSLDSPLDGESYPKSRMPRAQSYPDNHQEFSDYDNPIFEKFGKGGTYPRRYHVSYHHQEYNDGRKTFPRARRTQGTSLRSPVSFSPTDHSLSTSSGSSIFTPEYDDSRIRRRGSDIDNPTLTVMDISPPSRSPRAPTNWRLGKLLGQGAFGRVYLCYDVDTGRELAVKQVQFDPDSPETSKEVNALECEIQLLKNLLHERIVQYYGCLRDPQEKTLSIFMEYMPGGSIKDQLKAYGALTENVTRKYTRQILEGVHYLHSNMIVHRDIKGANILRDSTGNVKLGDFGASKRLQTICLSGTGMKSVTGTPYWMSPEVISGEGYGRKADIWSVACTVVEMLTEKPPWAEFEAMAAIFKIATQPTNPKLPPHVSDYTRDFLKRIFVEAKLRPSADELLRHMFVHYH
# [18] = biological target: kinases (Homo sapiens, UniProt P43250); details: GRK6 FRET-Z-Lyte SP; Test Conc(μM):ATP Conc(μM) 1:10
# [19] = biological target: kinases (Homo sapiens, UniProt Q15208); details: STK38 FRET-Lantha SP; Test Conc(μM) 1
# kinases (Homo sapiens, UniProt Q15208), sequence (Q15208 whole entry): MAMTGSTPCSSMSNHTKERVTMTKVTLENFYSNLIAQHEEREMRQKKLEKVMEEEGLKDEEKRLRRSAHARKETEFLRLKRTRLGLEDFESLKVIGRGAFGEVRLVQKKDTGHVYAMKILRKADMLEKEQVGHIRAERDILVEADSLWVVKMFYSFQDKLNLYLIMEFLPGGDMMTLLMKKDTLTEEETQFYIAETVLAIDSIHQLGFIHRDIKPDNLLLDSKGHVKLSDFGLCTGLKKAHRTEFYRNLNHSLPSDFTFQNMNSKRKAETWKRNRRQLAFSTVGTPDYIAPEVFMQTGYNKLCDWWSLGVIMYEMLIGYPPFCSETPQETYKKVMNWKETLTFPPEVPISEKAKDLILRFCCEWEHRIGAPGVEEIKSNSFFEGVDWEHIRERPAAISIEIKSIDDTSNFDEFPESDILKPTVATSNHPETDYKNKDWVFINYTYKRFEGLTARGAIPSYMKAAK
# [20] = biological target: kinases (Homo sapiens, UniProt Q8WXR4); details: MYO3B FRET-Lantha SP; Test Conc(μM) 1
# [21] = biological target: kinases (Homo sapiens, UniProt P48736); details: PIK3CG (p110 gamma) Adapta SP; Test Conc(μM):ATP Conc(μM) 1:25
# [22] = biological target: kinases (Homo sapiens, UniProt Q86UE8); details: TLK2 FRET-Lantha SP; Test Conc(μM) 1
# [23] = biological target: kinases (Homo sapiens, UniProt P25098); details: ADRBK1 (GRK2) FRET-Z-Lyte SP; Test Conc(μM):ATP Conc(μM) 1:10
# [24] = biological target: kinases (Homo sapiens, UniProt P49674); details: CSNK1E (CK1 epsilon) Z-Lyte SP; Test Conc(μM):ATP Conc(μM) 1:5
# kinases (Homo sapiens, UniProt P49674), sequence (P49674 whole entry): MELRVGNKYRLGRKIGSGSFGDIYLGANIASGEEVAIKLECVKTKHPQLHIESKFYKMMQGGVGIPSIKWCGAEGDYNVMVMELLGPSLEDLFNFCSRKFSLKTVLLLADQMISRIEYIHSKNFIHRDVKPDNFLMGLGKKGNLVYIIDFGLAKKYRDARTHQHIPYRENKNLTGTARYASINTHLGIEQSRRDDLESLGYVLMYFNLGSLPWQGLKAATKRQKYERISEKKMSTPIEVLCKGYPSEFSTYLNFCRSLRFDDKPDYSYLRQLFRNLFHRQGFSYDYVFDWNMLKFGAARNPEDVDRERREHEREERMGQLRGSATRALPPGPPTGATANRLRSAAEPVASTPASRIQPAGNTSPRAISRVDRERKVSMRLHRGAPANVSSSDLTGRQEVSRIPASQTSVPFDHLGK
# [25] = biological target: kinases (Homo sapiens, UniProt O76039); details: CDKL5 FRET-Z-Lyte SP; Test Conc(μM):ATP Conc(μM) 1:500
# kinases (Homo sapiens, UniProt O76039), sequence (O76039 whole entry): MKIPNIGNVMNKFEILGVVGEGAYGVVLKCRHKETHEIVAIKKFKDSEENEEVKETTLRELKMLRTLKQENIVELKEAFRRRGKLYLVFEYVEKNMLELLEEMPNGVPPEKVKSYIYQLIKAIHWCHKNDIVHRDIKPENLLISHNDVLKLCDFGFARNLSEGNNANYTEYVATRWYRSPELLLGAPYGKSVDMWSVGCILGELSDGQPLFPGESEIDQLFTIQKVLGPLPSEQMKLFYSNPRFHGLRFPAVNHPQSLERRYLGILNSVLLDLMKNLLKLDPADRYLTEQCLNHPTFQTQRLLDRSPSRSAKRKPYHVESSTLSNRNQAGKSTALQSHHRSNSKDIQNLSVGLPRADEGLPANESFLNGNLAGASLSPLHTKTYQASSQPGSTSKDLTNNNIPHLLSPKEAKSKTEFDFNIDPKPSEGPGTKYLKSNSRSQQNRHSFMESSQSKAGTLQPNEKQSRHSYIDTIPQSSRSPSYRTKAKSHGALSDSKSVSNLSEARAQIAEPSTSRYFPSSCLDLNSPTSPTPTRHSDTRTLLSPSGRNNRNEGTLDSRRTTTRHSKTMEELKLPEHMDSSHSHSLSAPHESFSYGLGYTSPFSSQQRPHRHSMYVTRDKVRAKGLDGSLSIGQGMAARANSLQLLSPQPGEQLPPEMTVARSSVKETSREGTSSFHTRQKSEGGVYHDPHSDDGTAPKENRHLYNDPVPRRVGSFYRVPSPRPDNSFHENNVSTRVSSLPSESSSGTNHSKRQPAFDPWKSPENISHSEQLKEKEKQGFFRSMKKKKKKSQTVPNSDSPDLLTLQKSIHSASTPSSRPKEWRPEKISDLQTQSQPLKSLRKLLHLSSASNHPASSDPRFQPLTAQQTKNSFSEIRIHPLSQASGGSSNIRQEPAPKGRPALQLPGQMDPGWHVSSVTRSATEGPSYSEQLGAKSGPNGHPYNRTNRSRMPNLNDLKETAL
# [26] = biological target: kinases (Homo sapiens, UniProt Q02779); details: MAP3K10 (MLK2) FRET-Lantha SP; Test Conc(μM) 1
# [27] = biological target: kinases (Homo sapiens, UniProt Q05397); details: PTK2 (FAK) FRET-Z-Lyte SP; Test Conc(μM):ATP Conc(μM) 1:50
# [28] = biological target: kinases (Homo sapiens, UniProt P31751); details: AKT2 (PKB beta) FRET-Z-Lyte SP; Test Conc(μM):ATP Conc(μM) 1:200
# [29] = CDK2/Cyclin E1 FRET-Lantha SP, Test Conc(μM) 1
# [30] = CDK2/Cyclin O FRET-Lantha SP, Test Conc(μM) 1
# [31] = CDK2/cyclin A1 FRET-Lantha SP, Test Conc(μM) 1
# [32] = CDK2/cyclin A FRET-Z-Lyte SP, Test Conc(μM):ATP Conc(μM) 1:25
# kinases (Homo sapiens, UniProt P36897), sequence (P36897 34-503): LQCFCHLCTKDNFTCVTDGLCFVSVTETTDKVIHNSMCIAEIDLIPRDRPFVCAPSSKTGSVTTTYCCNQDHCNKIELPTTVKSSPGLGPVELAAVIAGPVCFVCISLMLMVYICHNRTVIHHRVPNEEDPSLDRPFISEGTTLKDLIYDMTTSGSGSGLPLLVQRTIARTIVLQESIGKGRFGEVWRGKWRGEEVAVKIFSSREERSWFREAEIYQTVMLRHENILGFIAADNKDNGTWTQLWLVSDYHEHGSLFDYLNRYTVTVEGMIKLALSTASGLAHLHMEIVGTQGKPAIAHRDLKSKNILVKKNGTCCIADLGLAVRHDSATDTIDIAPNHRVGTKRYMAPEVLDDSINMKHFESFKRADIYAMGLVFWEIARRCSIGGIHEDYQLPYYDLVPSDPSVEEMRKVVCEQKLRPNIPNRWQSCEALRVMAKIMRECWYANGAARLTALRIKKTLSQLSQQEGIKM
Compound,Mean Inhib (%) [1],Mean Inhib (%) [2],Mean Inhib (%) [3],Mean Inhib (%) [4],Mean Inhib (%) [5],Mean Inhib (%) [6],Mean Inhib (%) [7],Mean Inhib (%) [8],Mean Inhib (%) [10],Mean Inhib (%) [11],Mean Inhib (%) [12],Mean Inhib (%) [14],"Mean Inhib (%) [15, 29]","Mean Inhib (%) [15, 30]","Mean Inhib (%) [15, 31]","Mean Inhib (%) [15, 32]",Mean Inhib (%) [16],Mean Inhib (%) [17],Mean Inhib (%) [18],Mean Inhib (%) [19],other results
Cc1ccc(NC(=O)c2ccnc(N3CCOCC3)c2)cc1Nc1ccnc(N2CC(C)OC(C)C2)n1 (stereo not shown) [compound 3],5.3%,9.9%,5.6%,7.0%,16.9%,14.3%,−2.1%,13.0%,−3.8%,7.6%,15.8%,−1.6%,13.8%,2.7%,−1.8%,6.2%,5.3%,3.5%,0.8%,−9.2%,Mean Inhib (%) ([9]; CDK4 Cyclin D1 *Mn* Adapta SP): 7.8%; Mean Inhib (%) ([9]; CDK4 Cyclin D3 *Mn* Adapta SP): 5.0%; Mean Inhib (%) ([13]; Test Conc(μM):ATP Conc(μM) 1:300): 5.8%; Mean Inhib (%) [20]: 3.9%; Mean Inhib (%) [21]: 7.4%; Mean Inhib (%) [22]: −2.9%; Mean Inhib (%) [23]: 8.4%; Mean Inhib (%) [24]: 5.8%; Mean Inhib (%) [25]: 13.9%; Mean Inhib (%) [26]: 0.6%; Mean Inhib (%) [27]: 13.1%; Mean Inhib (%) [28]: 8.0%
Cc1cc(Oc2ccnc(Nc3ccc(S(N)(=O)=O)cc3)c2)c(-c2ccccn2)nc1C [compound 65],99.6%,9.5%,−4.7%,0.2%,5.7%,54.4%,9.2%,64.0%,−6.4%,2.9%,6.0%,−3.0%,10.6%,3.0%,4.9%,5.0%,1.5%,5.7%,2.1%,3.1%,"CDK4 Cyclin D1 *Mn* Adapta SP Mean Mean Inhib (%) ([9]; CDK4 Cyclin D1, Mn): 2.5%; CDK4 Cyclin D3 *Mn* Adapta SP Mean Mean Inhib (%) ([9]; CDK4 Cyclin D3, Mn): −3.9%; Mean Inhib (%) ([13]; Test Conc(μM):ATP Conc(μM) 0.25): −3.7%; Mean Inhib (%) [20]: 4.1%; Mean Inhib (%) [21]: 9.1%; Mean Inhib (%) [22]: −4.8%; Mean Inhib (%) [23]: 1.0%; Mean Inhib (%) [24]: 2.8%; Mean Inhib (%) [25]: 9.8%; Mean Inhib (%) [26]: 2.7%; Mean Inhib (%) [27]: 5.7%; Mean Inhib (%) [28]: 2.3%"
